Patent US20260325561A1, “4'-SUBSTITUTED NUCLEOSIDES AND NUCLEOTIDES AS ANTIVIRAL AGENTS” (THE SCRIPPS RESEARCH INSTITUTE, priority 2023, published 2026)

Experiments:
in vitro [1] = conditions: human, hela-ace2 cells
in vitro [2] = conditions: human, hepg2 cells
HRV 14 = assay: microbe, parasite or virus in culture; assay type: cell-based, Human Rhinovirus 14 strain 1059; conditions: Rhinovirus B, H1-HeLa, 48 h, read-out: HRV / H1 HeLa B 14 EC50
RSV A2 = assay: microbe, parasite or virus in culture; assay type: cell-based; conditions: human respiratory syncytial virus, HEp-2, 72 h, read-out: RSV A2 / Hep2 EC50
in vitro [3] = conditions: human, hep2 cells
SARS-CoV-2 = assay: microbe, parasite or virus in culture; assay type: cell-based, SARS-CoV-2 strain USA-WA1/2020; conditions: Severe acute respiratory syndrome coronavirus 2, HeLa-ACE2, 24 h, read-out: SARS-CoV-2 / HeLa-ACE2 EC50
DENV-2 = assay: microbe, parasite or virus in culture; assay type: cell-based, DENV-2 16681; conditions: Dengue virus, DENV2, HepG2, 24 h, read-out: DENV-2 / HepG2 EC50
in vitro [4] = conditions: human, h1 hela cells

SMILES | CC50 at 24 h (in vitro [1]) [µM] | CC50 at 72 h (in vitro [2]) [µM] | EC50 (HRV 14) [µM] | EC50 (RSV A2) [µM] | CC50 (in vitro [3]) [µM] | EC50 (SARS-CoV-2) [µM] | EC50 (DENV-2) [µM] | CC50 (in vitro [4]) [µM]
C[C@H](NP(=O)(OC[C@@]1(F)O[C@@](C#N)(c2cnc3c(N)ncnn23)[C@H](O)[C@@H]1O)Oc1cccc2ccccc12)C(=O)OCC(C)(C)C (stereo partly drawn) [Example 65, neopentyl ((((2S,3S,4R,5R)-5-(4-aminoimidazo[2,1-f][1,2,4]triazin-7-yl)-5-cyano-2-fluoro-3,4-dihydroxytetrahydrofuran-2-yl)methoxy)(naphthalen-1-yloxy)phosphoryl)-L-alaninate] | 10 to 99 | 1 to 10 | > 10 | > 10 | 10 to 99 | 1 to 10 | 1 to 10 | 10 to 99
CCOc1nc(N)nc2c1ncn2[C@@H]1O[C@](F)(COP(=O)(N[C@@H](C)C(=O)OC(C)C)Oc2ccccc2)[C@@H](O)[C@@]1(C)Cl (stereo partly drawn) [Example 64, isopropyl ((((2S,3R,4R,5R)-5-(2-amino-6-ethoxy-9H-purin-9-yl)-4-chloro-2-fluoro-3-hydroxy-4-methyltetrahydrofuran-2-yl)methoxy)(phenoxy)phosphoryl)-L-alaninate] | 10 to 99 | 10 to 99 | > 10 | > 10 | 10 to 99 | > 10 | 1 to 10 | 10 to 99
[N-]=[N+]=N[C@]1(CO)C[C@@H](O)[C@H](n2ccc3c(N)ncnc32)O1 [Example 8, (2R,3R,5R)-2-(4-amino-7H-pyrrolo[2,3-d]pyrimidin-7-yl)-5-azido-5-(hydroxymethyl)tetrahydrofuran-3-ol] | > 99 | > 99 | > 10 | > 10 | > 99 | > 10 | > 10 | > 99
CSc1nc(N)nc2c1ncn2[C@@H]1O[C@](F)(CO)[C@@H](O)[C@H]1O [Example 28] | 1 to 10 | 1 to 10 | > 10 | 0.1 to 1 | 1 to 10 | > 10 | 0.1 to 1 | 1 to 10
CC(C)C(=O)OC[C@@]1(F)O[C@@H](n2ccc3c(N)ncnc32)[C@H](O)[C@@H]1O [Example 46, ((2S,3S,4R,5R)-5-(4-amino-7H-pyrrolo[2,3-d]pyrimidin-7-yl)-2-fluoro-3,4-dihydroxytetrahydrofuran-2-yl)methyl isobutyrate] | 1 to 10 | 1 to 10 | 0.1 to 1 | 0.1 to 1 | 10 to 99 | 0.1 to 1 | < 0.1 | 10 to 99
CCOc1nc(N)nc2c1ncn2[C@@H]1O[C@](F)(CO[P@@](=O)(N[C@@H](C)C(=O)OC(C)C)Oc2ccccc2)[C@@H](O)[C@]1(F)Cl [Example 67, isopropyl ((((2S,3R,4S,5R)-5-(2-amino-6-ethoxy-9H-purin-9-yl)-4-chloro-2,4-difluoro-3-hydroxytetrahydrofuran-2-yl)methoxy)(phenoxy)phosphoryl)-L-alaninate] | 10 to 99 | 10 to 99 | 1 to 10 | > 10 | 10 to 99 | > 10 | 1 to 10 | 10 to 99
Nc1ncnc2c1cnn2[C@@H]1O[C@](F)(CO)[C@@H](O)[C@H]1O [Example 52, (2S,3S,4R,5R)-5-(4-amino-1H-pyrazolo[3,4-d]pyrimidin-1-yl)-2-fluoro-2-(hydroxymethyl)tetrahydrofuran-3,4-diol] | 1 to 10 | < 1 | 1 to 10 | > 10 | 1 to 10 | 1 to 10 | 1 to 10 | 1 to 10
CC(C)C(=O)OC[C@@]1(F)O[C@@H](n2ccc3c(N)ncnc32)[C@H](OC(=O)C(C)C)[C@@H]1OC(=O)C(C)C [Example 47, (2S,3S,4R,5R)-5-(4-amino-7H-pyrrolo[2,3-d]pyrimidin-7-yl)-2-fluoro-2-((isobutyryloxy)methyl)tetrahydrofuran-3,4-diyl bis(2-methylpropanoate)] | 10 to 99 | 1 to 10 | 1 to 10 | < 0.1 | 1 to 10 | 1 to 10 | < 0.1 | 10 to 99
Nc1ncnc2c1ccn2[C@@H]1O[C@](F)(CO)C[C@H]1O [Example 11, (2R,3R,5R)-2-(4-amino-7H-pyrrolo[2,3-d]pyrimidin-7-yl)-5-fluoro-5-(hydroxymethyl)tetrahydrofuran-3-ol] | > 99 | 10 to 99 | > 10 | > 10 | > 99 | > 10 | > 10 | 10 to 99
C#C[C@]1(O)[C@H](n2ccc3c(NCCC)ncnc32)O[C@](F)(CO)[C@H]1O [Example 70, (2S,3S,4R,5R)-4-ethynyl-2-fluoro-2-(hydroxymethyl)-5-(4-(propylamino)-7H-pyrrolo[2,3-d]pyrimidin-7-yl)tetrahydrofuran-3,4-diol] | > 99 | 10 to 99 | > 10 | > 10 | 10 to 99 | > 10 | > 10 | 10 to 99
CSc1ncnc2c1ccn2[C@@H]1O[C@](F)(CO)[C@@H](O)[C@H]1O [Example 72, (2S,3S,4R,5R)-2-fluoro-2-(hydroxymethyl)-5-(4-(methylthio)-7H-pyrrolo[2,3-d]pyrimidin-7-yl)tetrahydrofuran-3,4-diol] | 10 to 99 | 10 to 99 | > 10 | > 10 | 10 to 99 | 1 to 10 | 1 to 10 | > 99
COc1ncnc2c1c(C(N)=O)cn2[C@@H]1O[C@](F)(CO)[C@@H](O)[C@H]1O [Example 38, 7-((2R,3R,4S,5S)-5-fluoro-3,4-dihydroxy-5-(hydroxymethyl)tetrahydrofuran-2-yl)-4-methoxy-7H-pyrrolo[2,3-d]pyrimidine-5-carboxamide] | < 1 | 1 to 10 | > 10 | > 10 | 10 to 99 | > 10 | 1 to 10 | 10 to 99
CO[C@]1(CO)O[C@@H](c2ccc3c(N)ncnn23)[C@](C)(O)[C@@H]1O [Example 3, (2R,3S,4R,5S)-5-(4-aminopyrrolo[2,1-f][1,2,4]triazin-7-yl)-2-(hydroxymethyl)-2-methoxy-4-methyltetrahydrofuran-3,4-diol] | > 99 | > 99 | > 10 | > 10 | > 99 | > 10 | > 10 | > 99
C[C@]1(O)[C@H](c2ccc3c(N)ncnn23)O[C@@](CO)(N=[N+]=[N-])[C@H]1O [Example 9, (2R,3S,4R,5S)-5-(4-aminopyrrolo[2,1-f][1,2,4]triazin-7-yl)-2-azido-2-(hydroxymethyl)-4-methyltetrahydrofuran-3,4-diol] | > 99 | > 99 | > 10 | > 10 | > 99 | > 10 | > 10 | > 99
N#C[C@@]1(c2cnc3c(N)ncnn23)O[C@](F)(CO)[C@@H](O)[C@H]1O [Example 51, (2R,3R,4S,5S)-2-(4-aminoimidazo[2,1-f][1,2,4]triazin-7-yl)-5-fluoro-3,4-dihydroxy-5-(hydroxymethyl)tetrahydrofuran-2-carbonitrile] | > 99 | > 99 | > 10 | > 10 | > 99 | > 10 | > 10 | > 99
COc1ncnc2c1ccn2[C@@H]1O[C@](F)(CO)C[C@H]1O [Example 39, (2R,3R,5R)-5-fluoro-5-(hydroxymethyl)-2-(4-methoxy-7H-pyrrolo[2,3-d]pyrimidin-7-yl)tetrahydrofuran-3-ol] | > 99 | > 99 | > 10 | > 10 | > 99 | > 10 | > 10 | > 99
Nc1ncnc2c1ccn2[C@@H]1O[C@@](F)(CO)C[C@H]1O [Example 12, (2R,3R,5S)-2-(4-amino-7H-pyrrolo[2,3-d]pyrimidin-7-yl)-5-fluoro-5-(hydroxymethyl)tetrahydrofuran-3-ol] | > 99 | > 99 | > 10 | > 10 | > 99 | > 10 | > 10 | 10 to 99
CNc1nc(N)nc2c1ncn2[C@@H]1O[C@](F)(COP(=O)(N[C@@H](C)C(=O)OC(C)C)Oc2ccccc2)[C@@H](O)[C@]1(F)Cl (single isomer, unassigned) [Example 59] | > 99 | > 99 | 1 to 10 | > 10 | > 99 | > 10 | 1 to 10 | > 99
